Structures can show the parent of a compound that is named as a salt.
Key:
[1] = target: T1, human noradrenaline transporter (hNET) (Homo sapiens, UniProt P23975); assay: Inhibition of 3H-noradrenaline uptake in HEK-293 cells expressing hNET; format: cell-based; details: HEK-293 cells with hNET; 3H-noradrenaline 200 nM; 15 min incubation at 25° C.; read-out: NRI IC50
T1 construct: expressed in transfected cells; host or cells: HEK-293
Procedure: (§1) The compounds were tested for biological activity by their ability to inhibit the uptake of serotonin and/or noradrenaline by human serotonin and/or noradrenaline transporters as follows.
(§2) (i) Cell Culture • Human embryonic kidney cells (HEK-293) stably transfected with either the human serotonin transporter (hSERT), noradrenaline transporter (hNET) or dopamine transporter (hDAT) were cultured under standard cell culture techniques (cells were grown at 37° C. and 5% CO2in either Dulbecco's Modified Eagle's Medium (DMEM) culture media supplemented with 10% dialysed foetal calf serum (FCS), 2 mM L-glutamine and 250 μg/ml geneticin (hSERT and hNET cells) or DMEM-culture media supplemented with 5% FCS, 5% new-born calf serum, 2 mM L-glutamine and […] (hDAT cells)). Prior to assay, cells were harvested by dissociation using cell dissociation solution (Sigma) and centrifugation, and resuspended in standard assay buffer (see below) at a viable cell density of 750,000 cells/ml.
(§3) (i) Determination of Inhibitor Potency • All test compounds were dissolved in 100% DMSO at 4 mM and diluted down in 1% DMSO in water to give appropriate test concentrations. Assays were carried out in 96-well filter bottom plates. Cells expressing the appropriate human transporter protein (75,000 cells/assay well) were pre-incubated at 25° C. in standard assay buffer containing either test compound, a standard inhibitor (positive control) or compound vehicle (DMSO in water; final DMSO concentration was 0.1% in each assay well) for 5 minutes. Reactions were started by addition of either ^3H-serotonin, ^3H-noradrenaline or ^3H-dopamine substrates. All reactions were carried out at 25° C. in a shaking incubator. Incubation times were 5 minutes for the hSERT and hDAT assays and 15 minutes for the hNET assay. Reactions were terminated by addition of ice-cold wash buffer (see below), followed by filtration of the assay mixture using a vacuum manifold and rapid washing with icecold wash buffer. The quantity of ^3H-substrate incorporated into the cells was then quantified: Filtered/washed assay plates were dried at 45° C. for 1 hour, scintillation fluid added, and radioactivity measured by scintillation counting. Potency of test compounds was quantified as IC50 values (concentration of test compound required to inhibit the specific uptake of radiolabelled substrate into the cells by 50% relative to maximum (compound vehicle only) and minimum (complete inhibition by standard inhibitor) responses).
(§4) (iii) Standard Assay Buffer Composition: • Tris(hydroxymethyl)amino methane hydrochloride (26 mM) • NaCl (124 mM) • KCl (4.5 mM) • KH2PO4 (1.2 mM) • MgCl2.6H2O (1.3 mM) • Ascorbic acid (1.136 mM) • Glucose (5.55 mM) • pH 7.40 • CaCl2 (2.8 mM) • Pargyline (100 μM) • Note: The pH of the buffer was adjusted to 7.40 with 1 M NaOH before addition of CaCl2 and pargyline. • Wash Buffer Composition: • Tris(hydroxymethyl)methylamine (26 mM) • NaCl (124 mM) • KCl (4.5 mM) • KH2PO4 (1.2 mM) • MgCl2.6H2O (1.3 mM) • Ascorbic acid (1.136 mM) • pH 7.40 at 4° C. with 6M HCl
(§5) (iv) Summary of Assay Parameters

[2] = target: T2, human serotonin transporter (hSERT) (Homo sapiens, UniProt P31645); assay: Inhibition of 3H-serotonin uptake in HEK-293 cells expressing hSERT; format: cell-based; details: HEK-293 cells with hSERT; 3H-5HT 50 nM; 5 min incubation at 25° C.; read-out: SRI IC50
T2 construct: expressed in transfected cells; host or cells: HEK-293
Procedure: as §1, §2, §3, §4, §5

T1 sequence (P23975 whole entry): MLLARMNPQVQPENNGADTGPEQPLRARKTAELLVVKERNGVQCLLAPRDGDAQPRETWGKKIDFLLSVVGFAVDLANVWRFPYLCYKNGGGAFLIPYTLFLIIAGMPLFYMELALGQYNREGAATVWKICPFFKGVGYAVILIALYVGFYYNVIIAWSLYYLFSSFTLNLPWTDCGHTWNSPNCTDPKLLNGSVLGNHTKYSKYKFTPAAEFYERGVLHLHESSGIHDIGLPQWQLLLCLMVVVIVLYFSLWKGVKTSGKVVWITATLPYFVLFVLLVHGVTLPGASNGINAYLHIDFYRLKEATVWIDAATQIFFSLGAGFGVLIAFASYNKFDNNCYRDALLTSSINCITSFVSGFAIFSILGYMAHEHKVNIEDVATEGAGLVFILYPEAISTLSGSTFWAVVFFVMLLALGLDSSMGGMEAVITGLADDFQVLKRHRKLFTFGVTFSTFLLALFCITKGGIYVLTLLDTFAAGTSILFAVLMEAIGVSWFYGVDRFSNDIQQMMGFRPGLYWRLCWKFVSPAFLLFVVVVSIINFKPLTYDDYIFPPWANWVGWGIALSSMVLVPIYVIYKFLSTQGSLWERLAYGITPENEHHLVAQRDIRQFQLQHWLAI
T2 sequence (P31645 whole entry): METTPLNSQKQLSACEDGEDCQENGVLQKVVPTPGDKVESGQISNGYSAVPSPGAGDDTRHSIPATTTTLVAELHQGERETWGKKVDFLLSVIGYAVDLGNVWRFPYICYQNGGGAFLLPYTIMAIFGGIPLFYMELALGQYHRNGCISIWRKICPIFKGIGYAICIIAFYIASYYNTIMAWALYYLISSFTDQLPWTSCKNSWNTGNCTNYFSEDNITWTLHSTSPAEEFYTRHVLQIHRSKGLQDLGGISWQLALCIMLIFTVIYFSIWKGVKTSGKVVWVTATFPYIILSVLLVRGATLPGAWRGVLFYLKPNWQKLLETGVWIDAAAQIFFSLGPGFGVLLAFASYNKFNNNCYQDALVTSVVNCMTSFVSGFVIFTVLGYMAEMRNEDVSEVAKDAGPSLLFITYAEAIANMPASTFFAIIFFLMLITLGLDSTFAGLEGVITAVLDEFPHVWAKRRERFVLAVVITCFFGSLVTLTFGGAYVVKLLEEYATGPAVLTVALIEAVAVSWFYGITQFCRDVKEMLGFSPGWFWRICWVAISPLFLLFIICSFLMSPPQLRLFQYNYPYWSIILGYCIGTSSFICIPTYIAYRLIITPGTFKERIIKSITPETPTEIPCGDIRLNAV

| SMILES | IC50 [1] | IC50 [2] |
| --- | --- | --- |
| CC(C)CN(C(=O)c1cccc(Cl)c1Cl)[C@H]1CCNC1 [Example 1, 2,3-Dichloro-N-isobutyl-N-[(3S)-pyrrolidin-3-yl]benzamide citrate] | 14.1 nM | 13.9 nM |
| CC(C)CN(C(=O)c1ccc(Cl)cc1Cl)[C@H]1CCNC1 [Example 2, 2,4-Dichloro-N-isobutyl-N-[(3S)-pyrrolidin-3-yl]benzamide hydrochloride] | 28.5 nM | 9.7 nM |
| COc1cccc(C(=O)N(CC(C)C)[C@H]2CCNC2)c1C [Example 5, 3-Methoxy-2-methyl-N-isobutyl-N-[(3S)-pyrrolidin-3-yl]benzamide] | 32.9 nM | 10.9 nM |
| Cc1c(F)cccc1C(=O)N(CC(C)C)[C@H]1CCNC1 [Example 4, 3-Fluoro-2-methyl-N-isobutyl-N-[(3S)-pyrrolidin-3-yl]benzamide] | 45.9 nM | 18.8 nM |
| Cc1cccc(C(=O)N(CC(C)C)[C@H]2CCNC2)c1Cl [Example 3, 2-Chloro-3-methyl-N-isobutyl-N-[(3S)-pyrrolidin-3-yl]benzamide] | 21.2 nM | 22.3 nM |
| CC(C)CN(C(=O)c1cccc(Cl)c1)[C@H]1CCNC1 [Example 6, 3-Chloro-N-isobutyl-N-[(3S)-pyrrolidin-3-yl]benzamide] | 56.9 nM | 45.2 nM |

Now from value to compound:

| IC50 [1] | IC50 [2] | SMILES |
| --- | --- | --- |
| 26.3 nM | 21.5 nM | CCCCN(C(=O)c1cccc2ccccc12)[C@H]1CCNC1 [Example 12, N-Butyl-N-[(3S)-pyrrolidin-3-yl]-1-naphthamide hydrochloride] |
| 16.7 nM | 7.5 nM | CC(C)CN(C(=O)c1ccc(Cl)c(Cl)c1)[C@H]1CCNC1 [Example 8, 3,4-Dichloro-N-isobutyl-N-[(3S)-pyrrolidin-3-yl]benzamide] |
| 55.4 nM | 5.7 nM | CC(C)CN(C(=O)c1ccc(Cl)cc1)[C@H]1CCNC1 [Example 7, 4-Chloro-N-isobutyl-N-[(3S)-pyrrolidin-3-yl]benzamide] |
| 14 nM | 5.7 nM | O=C(c1ccccc1)N(Cc1ccc2ccccc2c1)[C@H]1CCNC1 [Example 9, N-(2-Naphthylmethyl)-N-[(3S)-pyrrolidin-3-yl]benzamide hydrochloride] |
| 17 nM | 3.2 nM | CC(C)CN(C(=O)c1ccc2ccccc2c1)[C@H]1CCNC1 [Example 11, N-Isobutyl-N-[(3S)-pyrrolidin-3-yl]-2-naphthamide hydrochloride] |
| 7.7 nM | 7.6 nM | O=C(c1ccccc1)N(Cc1ccc2ccccc2c1)[C@@H]1CCNC1 [Example 10, N-(2-Naphthylmethyl)-N-[(3R)-pyrrolidin-3-yl]benzamide hydrochloride] |
| 71.6 nM | 17.5 nM | CC(C)CN(C(=O)c1cc(F)c(Cl)cc1Cl)[C@H]1CCNC1 [Example 15, 2,4-Dichloro-5-fluoro-N-isobutyl-N-[(3S)-pyrrolidin-3-yl]benzamide hydrochloride] |
| 3.1 nM | 8.8 nM | O=C(c1ccc(Cl)cc1)N(Cc1ccc(Cl)c(Cl)c1)[C@@H]1CCNC1 [Example 13, 4-Chloro-N-(3,4-dichlorobenzyl)-N-[(3R)-pyrrolidin-3-yl]benzamide hydrochloride] |
| 57.1 nM | 43 nM | O=C(c1ccc(Cl)cc1)N(Cc1cccc(Cl)c1Cl)[C@@H]1CCNC1 [Example 14, 4-Chloro-N-(2,3-dichlorobenzyl)-N-[(3R)-pyrrolidin-3-yl]benzamide hydrochloride] |

— US7378436B2, “Compounds” (Pfizer Inc., priority 2003, dated 2008)
